Experimental findings from patent US20030082229A1, “Parenteral chlorambucil for treatment of malignant and autoimmune disease and methods of use” (priority 2001, published 2003) are described below.

The format of data set [1] is physicochemical. To be noted: RT. The text has this: HPLC assay provides an accurate and sensitive detection system for low concentrations of CLB in solution, both protein-free mixtures and protein-containing fluids (i.e., blood plasma), utilizing absorbency detection in the ultraviolet (UV) spectrum. For the detection a wavelength of 254 nm was chosen on the basis of the inherent absorption maximum of the CLB molecule. The HPLC system was equipped with a Waters 717 plus AutoSampler (Waters, Milford, Mass.). The detector was a Waters Model 486 Tunable Absorbance Detector in sequence with a Waters Millennium™ software package for HPLC (Waters, Milford, Mass.). The column used was a Whatman C-18 EQC […] 125A μBondapak 4.6×216 mm. […] The analytic system was based on previously established extraction and HPLC experience with retinoic acid and with the bifunctional DNA-alkylating drug busulfan (Napoli J L, Pramanik B C, Williams J B et al: Quantification of retinoic acid by gas-liquid chromatography-mass spectrometry: total versus all-trans-retinoic acid in human plasma. J LIPID RES. 26: 387-392, 1985; Chow D S-L, Bhagwatwar H P, Phadungpojna S, Andersson B S: Stability-indicating high-performance liquid chromatographic assay of busulfan in aqueous and plasma samples. J CHROMATOGR B, 704: 277-288, 1997). […]

Data set [2] in a line: IV CLB pharmacology in rats. The format is in vivo, Sprague-Dawley rats. The text has this: Male Sprague-Dawley rats with a body weight of 250-300 g were used for the in vivo pharmacology experiments (Harlan-Sprague-Dawley, Houston, Tex.). The animals were allowed a minimum of 3-4 days after arrival to accommodate to the new environment and allowed free access to commercial feed and tap water prior to and during the experimentation period. The animals were housed in facilities that meet the requirements of the U.S. Department of Agriculture, (USDA), National Institute of Health (NIH), and Department of Health and Human Services (DHHS).
The CLB dose of 5 mg/kg BW was determined to be the highest dose that could be administered to the rats as an IV bolus injection without requiring anticonvulsant premedication.
The CLB was formulated in EtOH/lipid (prototype EtOH/lipid solvent vehicle) to a stock concentration of 100 mg/ml and then diluted with NS so the dose (5.0 mg/kg) could be injected in a tail vein in a volume of approximately 0.5 ml. The CLB concentrations of the formulation were confirmed by HPLC prior to all administrations. No anticonvulsant premedication for the rats in this experiment was used in order to avoid the possible induction of microsomal liver enzymes that could modify CLB metabolism. The animals were unanesthetized, being only physically restrained during the drug injection for the same reason.
Blood samples (0.5-1.0 ml) were drawn in heparinized tubes at selected time points prior to the drug infusion (“blank”), and from 5 min to 6 hours after drug injection for determination of CLB concentrations. The samples were obtained through cardiac puncture under light CO2 anesthesia in the rats and through a prepositioned cephalic vein catheter in the dogs. The blood was centrifuged at 1,000×g for 10 min, and the plasma was removed and stored at−80° C. until extracted and assayed by HPLC.

A short description of data set [3]: Osmotic pressure measurement (micro-osmometer). The data set is classed as physicochemical. To be noted: CLB final concentration 1-5 mg/ml. The method, then: It is desirable that a parenteral formulation of a pharmacologically active agent be isosmotic with blood. A hypertonic delivery system can be utilized if the drug formulation is infused through an indwelling (central) venous catheter and gradually diluted in a large blood volume. Osmotic pressures were measured with a micro-osmometer model 3MOplus osmometer (Advanced Instruments Inc., Needham Heights, Mass.). The instrument was calibrated using Advans™ intrinsic calibration standards (Advanced Instruments Inc.) in the range of 500-2000 mOsm/kg. The test solution was placed in a disposable cuvette, and the osmotic pressure readings were recorded. Triplicate measurements were carried out for each vehicle (without CLB), and six measurements were done with drug added. A two-tailed t-test was used to compare the differences in osmotic pressures of various solvent vehicles with and without the addition of CLB (Mann H. B., Whitney D. R.: On a test whether one of two random variables is stochastically larger than the other. ANN. MATH. STATIST. 18: 50-60, 1947).

Data set [4] is classed as physicochemical.

“Also recorded” adds a separate entry of the source.

`O=C(O)CCCc1ccc(N(CCCl)CCCl)cc1` [CLB, 4-[Bis(2-chloroethyl)amino]benzenebutanoic acid]: the “Time CLB stable at 100 mg/ml in EtOH/lipid solvent” value in data set [1] (100 mg/ml, prototype EtOH/lipid vehicle) is given as “more than 7 days”. Further, in data set [1] (EtOH/lipid solvent system, HPLC), the “Drug still intact at 7 days” value is over 95%. Further, the “CLB plasma concentrations after IV injection, rats” value in data set [2] (5 mg/kg BW IV) was “detectable, cytotoxic CLB plasma concentrations; also recorded: for several hours remained in the cytotoxic range; also recorded: maintained for several hours”. For the same compound, the “Tolerability of injection, rats” value in data set [2] (5.0 mg/kg BW IV) was “well tolerated; also recorded: well accepted”. Further, in data set [2] (rats, IV bolus), the “Highest dose as IV bolus without requiring anticonvulsant premedication” value came to 5 mg/kg BW. Further, in data set [3], the “Change of osmolarity of complete vehicle by addition of CLB” value is on record as under 5%. For the same compound, in data set [4] (DMSO), the “CLB degradation in DMSO” value is listed as “started degrading within a few hours”. Besides, the “Time CLB stable in DMSO before significant degradation” value in data set [4] (DMSO, RT) was “at most 2 hours”. The “Time formulation stable after mixing with infusion fluid” value in data set [4] (EtOH/lipid diluted with infusion fluid, RT, listed as Chlorambucil) is over 24 h. Further, the “Stability (percent remaining) of infusion formulation” value in data set [4] (RT, over 24 hours, FIG. 1) was over 90%. The “CLB recovered at 24 hours, diluted to 1 mg/ml” value in data set [4] (primary stock diluted with NS to 1 mg/ml) was over 95%. Further, the “CLB recovered at 24 hours, diluted to 5 mg/ml” value in data set [4] (primary stock diluted with NS to 5 mg/ml) is over 95%.
